pIC50: −log10 of the molar value. Calls of active or inactive are those of the source. The rule behind the calls is not given here.
Columns and labels:
[1] = target: Bromodomain-containing protein 4 (Homo sapiens, UniProt O60885); assay: Inhibition of BRD4 BD1 (unknown origin) by TR-FRET assay
HepG2 [2] = assay: Antiproliferative activity against human HepG2 cells assessed as reduction in cell viability incubated for 72 hrs by MTT assay; format: functional, cell-based; details: HepG2, 72 h
MCF7 = assay: Antiproliferative activity against human MCF7 cells assessed as reduction in cell viability incubated for 72 hrs by MTT assay; format: functional, cell-based; details: MCF7, 72 h
HT-29 = assay: Antiproliferative activity against human HT-29 cells assessed as reduction in cell viability incubated for 72 hrs by MTT assay; format: functional, cell-based; details: HT-29, 72 h
[3] = Cytotoxicity against human GES1 cells assessed as reduction in cell viability incubated for 72 hrs by MTT assay; format: toxicity, cell-based
HepG2 [4] = assay: Induction of apoptosis in human HepG2 cells assessed as increase in cleaved caspase-3 level at 2.5 uM incubated for 24 hrs by Western blot analysis; format: functional, cell-based
HepG2 [5] = assay: Induction of apoptosis in human HepG2 cells assessed as early apoptotic cells at 5 uM incubated for 24 hrs by Annexin-V/PI staining based flow cytometry (Rvb=4.48%); format: functional
HepG2 [6] = assay: Induction of apoptosis in human HepG2 cells assessed as total apoptotic cells at 5 uM incubated for 24 hrs by Annexin-V/PI staining based flow cytometry (Rvb=5.14%); format: functional
HepG2 [7] = assay: Induction of cell cycle arrest in human HepG2 cells assessed as accumulation at G0/G1 phase at 5 uM incubated for 24 hrs by flow cytometry (Rvb= 46.5%); format: functional
HepG2 [8] = assay: Induction of cell cycle arrest in human HepG2 cells assessed as accumulation at G2/M phase at 5 uM incubated for 24 hrs by flow cytometry (Rvb= 14.05%); format: functional
HepG2 [9] = assay: Induction of cell cycle arrest in human HepG2 cells assessed as accumulation at S phase at 5 uM incubated for 24 hrs by flow cytometry (Rvb= 20.1%); format: functional
HepG2 [10] = assay: Inhibition of c-myc expression in human HepG2 cells at 5 uM incubated for 24 hrs by Western blot analysis; format: functional, cell-based
HepG2 [11] = assay: Induction of apoptosis in human HepG2 cells assessed as necrotic cells at 5 uM incubated for 24 hrs by Annexin-V/PI staining based flow cytometry (Rvb=0.85%); format: functional
HepG2 [12] = assay: Induction of apoptosis in human HepG2 cells assessed as increase in p21 level at 2.5 uM incubated for 24 hrs by Western blot analysis; format: functional, cell-based
HepG2 [13] = assay: Induction of apoptosis in human HepG2 cells assessed as viable cells at 5 uM incubated for 24 hrs by Annexin-V/PI staining based flow cytometry (Rvb=94.0%); format: functional; details: read-out: Activity
HepG2 [14] = assay: Induction of apoptosis in human HepG2 cells assessed as late apoptotic cells at 5 uM incubated for 24 hrs by Annexin-V/PI staining based flow cytometry (Rvb=0.66%); format: functional

SMILES	pIC50 [1]	pIC50 (HepG2 [2])	pIC50 (MCF7)	pIC50 (HT-29)	IC50 at 72 h [3]	further results
Cc1nc2cc(-c3cc(NS(C)(=O)=O)ccc3Oc3ccccc3C(F)(F)F)ccc2[nH]c1=O	5.58	–	–	–	–	–
COc1cc(Cl)ccc1Oc1ccc(NS(C)(=O)=O)cc1-c1ccc2[nH]c(=O)c(C)nc2c1	5.63	–	–	–	–	–
Cc1nc2cc(-c3cc(S(C)(=O)=O)ccc3Oc3ccc(F)cc3F)ccc2[nH]c1=O	5.40	–	–	–	–	–
Cc1nc2cc(-c3cc(C=O)ccc3Oc3ccc(F)cc3F)ccc2[nH]c1=O	5.60	–	–	–	–	–
CCc1nc2cc(-c3cc(NS(C)(=O)=O)ccc3Oc3ccc(F)cc3F)ccc2[nH]c1=O	–	4.83	5.71	4.78	29.8 µM	–
COC(=O)c1ccc(Oc2ccc(F)cc2F)c(-c2ccc3[nH]c(=O)c(C)nc3c2)c1	5.37	–	–	–	–	–
Cc1nc2cc(-c3cc(NS(C)(=O)=O)ccc3Oc3ccc(F)cc3Cl)ccc2[nH]c1=O	5.81	–	–	–	–	–
Cc1ccccc1Oc1ccc(NS(C)(=O)=O)cc1-c1ccc2[nH]c(=O)c(C)nc2c1	5.67	–	–	–	–	–
COc1ccccc1Oc1ccc(NS(C)(=O)=O)cc1-c1ccc2[nH]c(=O)c(C)nc2c1	5.55	–	–	–	–	–
Cc1nc2cc(-c3cc(NS(C)(=O)=O)ccc3Oc3ccc(F)cc3F)ccc2[nH]c1=O	–	4.79	5.13	5.16	33.5 µM	–

Continued, in another order:

pIC50 [1]	pIC50 (HepG2 [2])	pIC50 (MCF7)	pIC50 (HT-29)	SMILES	IC50 at 72 h [3]	further results
5.95	–	–	–	Cc1nc2cc(-c3cc(C(C)(C)O)ccc3Oc3ccc(F)cc3F)ccc2[nH]c1=O	–	–
5.83	–	–	–	Cc1nc2cc(-c3cc(C(=O)N4CCOCC4)ccc3Oc3ccc(F)cc3F)ccc2[nH]c1=O	–	–
6.12	4.64	< 4.30	4.75	Cc1nc2cc(-c3cc(CS(C)(=O)=O)ccc3Oc3ccc(F)cc3F)ccc2[nH]c1=O	36.1 µM	–
6.47	4.95	5.33	5.09	Cc1nc2cc(-c3cc(NS(C)(=O)=O)ccc3Oc3ccc(Cl)cc3)ccc2[nH]c1=O	18.1 µM	–
9.15	5.37	4.91	5.74	CCS(=O)(=O)Nc1ccc(Oc2ccc(F)cc2F)c(-c2cn(C)c(=O)c3[nH]ccc23)c1 [MIVEBRESIB]	4.31 µM	Activity (HepG2 [4]): Active; Activity (HepG2 [5]): 32%; Activity (HepG2 [6]): 34.81%; Activity (HepG2 [7]): 56.2%; Activity (HepG2 [8]): 19.6%; Activity (HepG2 [9]): 13.1%; inhibition (HepG2 [10]): Active; Activity (HepG2 [11]): 1.63%; Activity (HepG2 [12]): Active; viability at 5 µM (HepG2 [13]): 63.6%; Activity (HepG2 [14]): 2.81%
6.21	4.75	< 4.30	4.82	Cc1nc2cc(-c3cc(C(=O)NCCO)ccc3Oc3ccc(F)cc3F)ccc2[nH]c1=O	> 100 µM	–
6.99	4.95	5.42	5.19	Cc1nc2cc(-c3cc(NS(C)(=O)=O)ccc3Oc3ccc(F)cc3)ccc2[nH]c1=O	36.5 µM	–
6.39	4.47	4.46	4.70	Cc1nc2cc(-c3cc(C(C)O)ccc3Oc3ccc(F)cc3F)ccc2[nH]c1=O (stereo not given)	30.8 µM	–
7.32	5.27	5.01	4.78	CCS(=O)(=O)Nc1ccc(Oc2ccc(F)cc2F)c(-c2ccc3[nH]c(=O)c(C)nc3c2)c1	20.2 µM	–
6.11	< 4.30	< 4.30	4.60	CCS(=O)(=O)Cc1ccc(Oc2ccc(F)cc2F)c(-c2ccc3[nH]c(=O)c(C)nc3c2)c1	45.8 µM	–
5.88	–	–	–	Cc1nc2cc(-c3cc(C(=O)N4CCN(C)CC4)ccc3Oc3ccc(F)cc3F)ccc2[nH]c1=O	–	–

Source: ChEMBL document CHEMBL5236660, “Design, synthesis, and biological evaluation of quinoxalinone derivatives as potent BRD4 inhibitors” (Bioorg Med Chem, 2023)
